Assay results as given in patent EP0862417B1, “PHARMACEUTICAL COMPOSITION FOR TOPICAL APPLICATION” (Reckitt Benckiser Healthcare (UK) Limited, priority 1995, dated 1997).

Assay: Supersaturation potential of a triclosan solution (calculated from solubilities)
Assay type: physicochemical
Conditions: skin pH e.g. pH 5.5; 200ppm triclosan solution at pH 10 as starting composition
Procedure: The supersaturation potential of a solution at pH 10 containing 200ppm triclosan was calculated by dividing the concentration of triclosan in that solution by the concentration of triclosan in the solutions at lower pHs.

Oc1cc(Cl)ccc1Oc1ccc(Cl)cc1Cl [triclosan]
degree of supersaturation achievable at a skin pH: 30 X
